Results reported in patent US6960610B2, “Use of glycogen phosphorylase inhibitors for treatment of cardiovascular diseases” (Novo Nordick, A/S, priority 2002, dated 2005).

Legend:
heart tissue glycogen = assay: Glycogen content of heart tissue following global ischemia; settings: in the presence of 0.4 μg/ml compound
Description: Method: The glycogen contents of freeze-clamped heart samples were determined enzymatically as μmol of glycosyl units per gram wet weight after boiling the tissue in 0.4 N KOH and subsequent degradation of glycogen with amyloglycosidase

[1] = test system: isolated perfused rabbit hearts; assay: Ischemia induced arrhythmia in the isolated perfused rabbit heart (Langendorff); settings: 0.4 μg/ml, n=7
Description: The model evaluates the effect of a test compound on ischemia induced arrhythmia in isolated perfused rabbit hearts. The hearts were excised from rabbits and perfused via an aortic canula in a Langendorff set-up equipped with ECG and MAP electrodes. Global normotherm ischemia was induced by turning off the perfusion for 30 min. After 30 min the heart was reperfused and the total duration of arrhythmia was determined. Furthermore, ECG and surface monophasic action potentials (MAPS) were scored to describe the severity of ischemic damage.

[2] = test system: Rabbits (myocardial infarct); assay: Anaesthetised rabbit model of myocardial infarction induced by transient coronary artery occlusion; assay type: in vivo; settings: 10 mg/kg b.i.d.; left coronary artery ligated 30 min, reperfusion 2 hours
Description: Method: Rabbits were anaesthetized and mechanically ventilated with oxygen enriched air. A thoracotomy was performed and an infarct was produced by ligating the left coronary artery for 30 min. After 30 min. the heart was reperfused for 2 hours. The heart was excited and reperfused in Langendorff mode. The coronary artery was reoccluded and the heart was perfused with ink to delineate the area at risk. The heart was removed and cut into 2 mm slices and stained with triphenyl tetrazolium chloride. The area at risk and the infarct size was determined by planimetry.

## OC[C@H]1NC[C@@H](O)[C@@H]1O [(2R,3R,4R)-3,4dihydroxy-2-hydroxymethylpyrrolidine]
Heart tissue glycogen; starting value
  glycogen content before ischemia: 16.9±1.5 glycosyl units/g wet weight
Heart tissue glycogen; without compound 2.6±0.8
  glycogen content after 30 min. of global ischemia: 6.9±1.1 glycosyl units/g wet weight
[1]; 30 min global ischemia, reperfusion, without compound 2.3±0.3
  MAP score: 0.9±0.1
[1]; 30 min global ischemia, reperfusion, without compound 2.4±0.2
  ECG score: 0.7±0.3
[1]; 30 min global normotherm ischemia, then reperfusion, without compound 18.0±5.6
  average arrhythmia length following reperfusion: 0.0 ± 0.0 min
[2]
  reduction of infarct size compared to untreated rabbits: 45%
